The text below walks through data of article PMC8704606, “The Artemiside-Artemisox-Artemisone-M1 Tetrad: Efficacies against Blood Stage P. falciparum Parasites, DMPK Properties, and the Case for Artemiside” (Pharmaceutics, 2021).

The test system of data set [1] is TM91-C235 (CQ and MFQ resistant). On the set-up: method as in ref S2. The note with it: [3H]-hypoxanthine assay; ref S2; read-out: Antimalarial activities IC50 TM91-C235; cited from earlier work.
Details of data set [2]: method as in PMID 34097488. The note with it: cited from earlier work.
The subject of data set [3] is asexual blood stages of Pf NF54 (drug sensitive). Briefly: SYBR Green I proliferation assay, asexual blood stages, Pf NF54. It is filed as cell-based, Plasmodium falciparum. The method, then:
(§1) Dose response curves are in Figures S1a–c and S2a–c in the Supplementary Material 1. Table 1 also includes the historical values for artemiside and artemisone obtained using the same assay.
(§2) All other assay conditions are as previously described. Compound working solutions were prepared from a 10 mM stock solution in 100% (vol/vol) dimethyl sulfoxide (DMSO, Sigma-Aldrich) in supplemented RPMI 1640 medium containing AlbuMAX II with a final DMSO concentration of 0.1% (vol/vol), previously determined to be nontoxic to blood stage asexual parasites and gametocytes. The dose-responses of the amino-artemisinins were assayed using a 2-fold serial drug dilution on in vitro 95% ring-stage parasites at 37 °C under 90% N2, 5% CO2, and 5% O2 atmospheric conditions, detecting SYBR green I fluorescence as the proliferative marker following a 96 h drug treatment (1% parasitemia and 1% hematocrit) using a GloMaxR-Multi+ Detection System (Promega). No drug washout steps were performed during drug incubation periods prior to the assays. Activity against the Pf drug-sensitive NF54 strain and the drug-resistant K1 (resistant to CQ, quinine, pyrimethamine, and cycloguanil) and W2 (resistant to CQ, quinine, pyrimethamine, and cycloguanil) strains was evaluated. Data analysis was performed using GraphPad Prism (version 6), intra-assay variability was monitored with Z-factors, and acceptable interassay reproducibility was determined from the percent coefficient of variation (CV).

A short description of data set [4]: Cytotoxicity (LDH assay) against HepG2 cells. It counts as cell-based. To be noted: human, HepG2 cells (hepatocellular carcinoma). The procedure: Cytotoxicity against mammalian hepatocellular carcinoma cells (HepG2 cells) was determined using the lactate dehydrogenase assay (LDH, Biovision Inc., Milpitas, CA, USA). […] Compound working solutions were prepared from 10 mM stock solutions (100% DMSO) in complete DMEM to a final DMSO (Sigma-Aldrich) conc. of <0.1% (vol/vol). […] Data analysis was performed using GraphPad Prism (version 6) software.

The test system of a further data set is D6 (CQ sensitive). On the set-up: method as in ref S2. To be noted: [3H]-hypoxanthine assay; ref S2; read-out: Antimalarial activities IC50 D6; cited from earlier work.
Data set [5] concerns asexual blood stages of Pf W2 (drug resistant). Put plainly: SYBR Green I proliferation assay, asexual blood stages, Pf W2. It is filed as cell-based, Plasmodium falciparum. The procedure: as §1, §2
In data set [6] the test system is early-stage (EG) Pf NF54 gametocytes. Put plainly: Luciferase assay, early-stage gametocytes. It is filed as cell-based, Plasmodium falciparum. The note with it: Plasmodium falciparum, NF54, 48 h, early-stage gametocytes >95% stages II-III; 48 h incubation; ± SEM. The method, then:
(§3) For screening artemisox and M1 against early- (EG) and late-stage (LG) gametocytes, the luciferase assay with transgenic NF54-pfs16-GFP-Luc and NF54-Mal8p1.16-GFP-Luc parasite lines was used. With this assay, stage-specificity of gametocytocidal action was established (Table 2). Dose-response curves are in Figures S1d,e and S2d in the Supplementary Material 1. […] As was observed previously for artemisone and artemiside, dose responses for artemisox and M1 could not be obtained at 48 h against late-stage gametocytes.
(§4) The same reference compounds with the exception of CQ were used for the early- and late-stage gametocyte assays. Gametocytocidal activity was determined using the transgenic NF54-pfs16-GFP-Luc and NF54-Mal8p1.16-GFP-Luc reporter lines. Compounds were initially screened for activity at a fixed drug concentration of 1 µM, with dose responses subsequently determined using 2-fold serial drug dilutions for 48 h against early-stage gametocytes (day 5 post-induction population, ≥95% stages II–III) and 10-fold serial drug dilutions for 48 h or 72 h against late-stage gametocytes (day 10 post-induction population, ≥90% late-stage [stages IV–V]) (2 to 3% gametocytemia, 2% hematocrit) at 37 °C under 90% N2, 5% CO2, and 5% O2 [6]. No drug washout steps were performed during the drug incubation periods prior to the assays. In all cases, an interference assay was run in parallel to eliminate the possibility of false positives arising through compound interference with the luciferase readout.

The test system of another data set is W2 (CQ resistant). On the set-up: method as in ref S2. The note with it: [3H]-hypoxanthine assay; ref S2; read-out: Antimalarial activities IC50 W2; cited from earlier work.
Data set [7] relates to TM93-C1088 (atovaquone and CQ resistant). On the set-up: method as in ref S2. The note with it: [3H]-hypoxanthine assay; ref S2; read-out: Antimalarial activities IC50 TM93-C1088; cited from earlier work.
Data set [8] concerns late-stage (LG) Pf NF54 gametocytes. Put plainly: Luciferase assay, late-stage gametocytes. It is filed as cell-based, Plasmodium falciparum. The note with it: fixed dose of 1 µM, 48 h incubation. The procedure:
as §3, §4

Another data set concerns TM-C2B. Details: method as in ref S2. To be noted: [3H]-hypoxanthine assay; ref S2; read-out: Antimalarial activities IC50 TM-C2B; cited from earlier work.
The test system of data set [9] is asexual blood stages of Pf K1 (drug resistant). Put plainly: SYBR Green I proliferation assay, asexual blood stages, Pf K1. It counts as cell-based, Plasmodium falciparum. The procedure:
as §1, §2

For another data set, the system named is 7G8 (CQ resistant). On the set-up: method as in ref S2. The note with it: [3H]-hypoxanthine assay; ref S2; read-out: Antimalarial activities IC50 7G8; cited from earlier work.
Data set [10] deals with asexual blood stages of Pf NF54 (drug sensitive). On the set-up: method as in PMID 29866868, PMID 31998692. To be noted: asexual blood stage Pf NF54, CQ sensitive; SYBR Green I; ± SEM; cited from earlier work.
Data set [11] relates to early-stage (EG) Pf NF54 gametocytes. Details: method as in PMID 29866868. To be noted: early-stage gametocytes >95% stages II-III; 48 h incubation; ± SEM; cited from earlier work.
For data set [12], the system named is CQ-sensitive P. berghei N strain. The note with it: Peters four-day test, mice, ref S4 (24), cited from earlier work.
The subject of data set [13] is asexual blood stages of Pf W2 (drug resistant). Details: method as in PMID 29866868, PMID 31998692. The note with it: asexual blood stage Pf W2, multidrug resistant; SYBR Green I; ± SEM; cited from earlier work.
For data set [14], the system named is CQ-resistant P. yoelii NS strain. To be noted: Peters four-day test, mice, subcutaneous; ref S4 (24); cited from earlier work.
A further data set deals with Toxoplasma gondii (Tg). Details: method as in PMID 19635951. To be noted: read-out: EC50 against Tg in vitro; cited from earlier work.
The conditions of data set [15]: single dose 10 mg/kg, healthy Aotus monkeys; cited from earlier work.
Data set [16] has as its system late-stage (LG) Pf NF54 gametocytes. Details: method as in PMID 29866868. The note with it: late-stage gametocytes >90% stages IV-V; 48 h incubation; ± SEM; cited from earlier work.
Data set [17] deals with asexual blood stages of Pf K1 (drug resistant). Details: method as in PMID 29866868, PMID 31998692. To be noted: asexual blood stage Pf K1, multidrug resistant; SYBR Green I; ± SEM; cited from earlier work.
Data set [18] deals with fetal rat brain stem cells. To be noted: cited from earlier work.

Where two headings read alike, the source gives them in different places.

As to `C[C@H]1[C@H](N2C=CS(=O)(=O)CC2)O[C@@H]2O[C@@]3(C)CC[C@H]4[C@H](C)CC[C@@H]1[C@@]24OO3` [M1 8, M1], the IC50 in [1] is 5 ± 0.6 nM; in [3] (Plasmodium falciparum, NF54, 96 h, asexual blood stage Pf NF54, CQ sensitive, SYBR Green I, 96 h, ± SEM, read-out: IC50 NF54) it was 2.63 ± 0.24 nM; in [3] (Plasmodium falciparum, NF54, summary over NF54, K1 and W2 strains, read-out: IC50 against asexual Pf blood stage parasites), around 2 nM; in [3] (summary over NF54, K1 and W2 strains, read-out: IC50 against asexual Pf blood stage parasites) it was 1.5 to 2.6 nM; in the data set with D6 (CQ sensitive), 4.7 ± 0.2 nM; in data set [5] (Plasmodium falciparum, asexual blood stage Pf W2, multidrug resistant, SYBR Green I, 96 h, ± SEM), 2.26 ± 0.08 nM. Also, the IC50 in [6] is 13.4 ± 2.7 nM; in the data set with W2 (CQ resistant), 6.6 ± 0.4 nM; in [7], 2.5 ± 0.4 nM; in the data set on TM-C2B, 8.6 ± 8.2 nM; in data set [9] (Plasmodium falciparum, asexual blood stage Pf K1, multidrug resistant, SYBR Green I, 96 h, ± SEM), 1.5 ± 0.23 nM; in the data set on 7G8 (CQ resistant), 2.6 ± 0.8 nM. In addition, the results for the “fold greater human microsomal half-life than artemisone” value in data set [2] and in data set [2] (listed as M1) were above 15 fold and at least 15 fold, respectively. The IC50 at 24 h in data set [4] is above 50000 nM. Also, in data set [5], the “RI = IC50 W2/IC50 NF54” value stood at 0.86. Also, the “inhibition of LG viability” value in [8] is on record as above 90%. Further, the “RI (resistance index) = IC50 K1/IC50 NF54” value in data set [9] was 0.57.
On to `C[C@H]1[C@H](OC(=O)CCC(=O)O)O[C@@H]2O[C@@]3(C)CC[C@H]4[C@H](C)CC[C@@H]1[C@@]24OO3` [Artesunate 4, Artesunate], for which the IC50 was 3 ± 0.29 nM in [10]; 2.9 ± 1.4 nM in data set [1]; 62.8 ± 3 nM in data set [11]; 2.4 ± 0.4 nM in [13]; 259 ± 80 nM in data set [16]; 4 ± 1 nM in data set [17]. Also, the IC50 was 3 ± 1.6 nM in the data set with W2 (CQ resistant), 1.4 ± 0.1 nM in data set [7], 2.5 ± 0.5 nM in the data set with TM-C2B and 1.5 ± 0.2 nM with 7G8 (CQ resistant). The “P. berghei ED90 po” value in data set [12] (oral daily day 0-3) is listed as 7.1 mg/kg. For the same compound, the “P. berghei ED90 sc” value in data set [12] (subcutaneous daily day 0-3) is on record as 7.2 mg/kg. Further, the “P. yoelii ED90 sc” value in data set [14] is 22.0 mg/kg. The EC50 with Toxoplasma gondii (Tg) is 213 nM. Also, the “ex vivo antimalarial activity observable up to (post dose)” value in [15] is reported as “up to 1 h”. Besides, the “Viability NOEC” value in [18] is on record as 0.1 µg/mL. Further, in [18] (effect on the cytoskeleton on day 7, ref S4 (24)), the “Neurofilaments IC50” value is recorded as 5.0 µg/mL.

Usually IC50 stands for the midpoint of a concentration-inhibition curve. The term EC50 denotes the concentration at which the effect is half-maximal.
